This note sets out measurements from ChEMBL document CHEMBL1135600, “Novel tricyclic-alpha-alkyloxyphenylpropionic acids: dual PPARalpha/gamma agonists with hypolipidemic and antidiabetic activity” (J Med Chem, 2002).

Several values for one entry are separate records, joined by “and”; a condition that tells them apart may be missing. Equal entries are not always repeated.

The target in series [1] is T1, Peroxisome proliferator-activated receptor alpha (Homo sapiens, UniProt Q07869).
T1 sequence (Q07869 whole entry): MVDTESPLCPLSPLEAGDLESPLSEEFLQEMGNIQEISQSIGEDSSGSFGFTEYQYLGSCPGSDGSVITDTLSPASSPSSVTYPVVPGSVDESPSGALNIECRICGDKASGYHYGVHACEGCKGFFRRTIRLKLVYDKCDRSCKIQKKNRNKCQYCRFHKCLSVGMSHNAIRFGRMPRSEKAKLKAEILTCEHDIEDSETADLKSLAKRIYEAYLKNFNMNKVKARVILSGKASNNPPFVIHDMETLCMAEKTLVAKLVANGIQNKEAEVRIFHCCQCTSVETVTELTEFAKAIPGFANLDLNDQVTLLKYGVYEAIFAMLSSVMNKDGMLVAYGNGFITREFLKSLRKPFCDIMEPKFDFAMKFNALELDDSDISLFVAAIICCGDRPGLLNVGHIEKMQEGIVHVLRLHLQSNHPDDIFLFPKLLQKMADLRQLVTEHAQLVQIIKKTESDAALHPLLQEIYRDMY
Description: In vitro transactivation using receptor transactivation assay against hPPAR alpha. It is filed as functional.

The target in series [2] is T2, Peroxisome proliferator-activated receptor gamma (Homo sapiens, UniProt P37231).
T2 sequence (P37231 whole entry): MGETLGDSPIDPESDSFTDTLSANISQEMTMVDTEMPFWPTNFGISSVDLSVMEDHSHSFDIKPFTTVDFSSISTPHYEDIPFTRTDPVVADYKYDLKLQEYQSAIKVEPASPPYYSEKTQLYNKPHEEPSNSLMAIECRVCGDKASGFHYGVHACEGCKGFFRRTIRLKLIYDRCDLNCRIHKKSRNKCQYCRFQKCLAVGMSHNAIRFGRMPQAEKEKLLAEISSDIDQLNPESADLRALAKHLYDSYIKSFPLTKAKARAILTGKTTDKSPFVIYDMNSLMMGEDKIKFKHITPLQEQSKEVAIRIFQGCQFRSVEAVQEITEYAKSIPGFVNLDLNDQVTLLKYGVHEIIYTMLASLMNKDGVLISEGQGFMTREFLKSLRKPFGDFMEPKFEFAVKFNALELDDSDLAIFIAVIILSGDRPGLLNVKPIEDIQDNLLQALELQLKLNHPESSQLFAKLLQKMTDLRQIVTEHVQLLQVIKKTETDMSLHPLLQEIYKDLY
Description: In vitro transactivation using receptor transactivation assay against hPPAR gamma

For series [3], the species on record is Mus musculus. Description: Maximum achieved insulin reduction relative to vehicle treated control group. It counts as functional.
Series [4] is filed under the species Mus musculus. Description: (§1) Maximum achieved blood glucose reduction relative to vehicle treated control group. It is filed as functional.
Series [5] is described as follows: Clearance after oral administration. It is filed as ADME, organism-based. The note with it: in vivo.
For series [6], the species on record is Mus musculus. Described as §1. It counts as functional. The source holds these as a separate data set.
Series [7] in a line: Area under plasma concentration time curve after oral administration at a dose 2.2 mg/kg. It is filed as ADME, organism-based. The note with it: in vivo. Set-up: dose 2.2 mg/kg, route oral.
Series [8] is described as follows: Area under blood glucose time curve after OGTT on the 9th day of treatment. It is filed as ADME, tissue-based.
The species named for series [9] is Mus musculus. Description: Nonfasting insulin after 7 days treatment in male db/db mice. It is filed as functional. The note with it: 168 h.
A short description of series [10]: Oral bioavailability. As to conditions: eutheria, in vivo. It counts as ADME, organism-based.
The species named for series [11] is Mus musculus. Briefly: Nonfasting triglycerides after 7 days treatment in male db/db mice. As to conditions: 168 h. It counts as functional.
The nature of series [12]: Maximum plasma concentration after oral administration at a dose 2.2 mg/kg. It is filed as ADME, organism-based. Set-up: dose 2.2 mg/kg, route oral.
The species named for series [13] is Mus musculus. Briefly: Nonfasting blood glucose after 7 days treatment in male db/db mice. It is filed as functional. The note with it: 168 h.
For series [14], the species on record is Mus musculus. Briefly: Maximum achieved triglycerides reduction relative to vehicle treated control group. It is filed as functional.
The nature of series [15]: Oral half life was reported. The note with it: in vivo. It counts as ADME, organism-based.
Series [16] deals with Mus musculus. Description: In vivo % reduction of blood glucose level in male db/db mice after administration of 3 mg/kg peroral dose of compound once in a day. It counts as functional. The note with it: route oral.
Series [17] relates to Mus musculus. Description: In vivo % reduction of blood glucose level in male db/db mice after administration of 0.33 mg/kg peroral dose of compound thrice a day. It counts as functional. The note with it: route oral.
For series [18], the system named is Mus musculus. Description: In vivo blood glucose area under curve after oral glucose tolerance test in male db/db mice at 3 mg/kg peroral dose of compound once in a day. Set-up: dose 3 mg/kg, route oral. It counts as ADME, organism-based.
Series [19] concerns Mus musculus. Briefly: In vivo blood glucose area under curve after oral glucose tolerance test in male db/db mice at 1 mg/kg peroral dose of compound thrice a day. It counts as ADME, organism-based. Set-up: dose 1 mg/kg, route oral.
Series [20] relates to Mus musculus. Description: In vivo % reduction of blood glucose area under curve after oral glucose tolerance test in male db/db mice at 0.33 mg/kg peroral dose of compound thrice a day. Set-up: dose 0.33 mg/kg, route oral. It counts as ADME, organism-based.
Series [21] relates to Mus musculus. Briefly: In vivo % reduction of blood glucose area under curve after oral glucose tolerance test in male db/db mice at 3 mg/kg peroral dose of compound once in a day. It is filed as ADME, organism-based. Set-up: dose 3 mg/kg, route oral.
Series [22] relates to Mus musculus. Description: In vivo blood glucose level in male db/db mice after administration of 1 mg/kg peroral dose of compound once in a day. The note with it: route oral. It counts as functional.
For series [23], the system named is Mus musculus. Briefly: In vivo blood glucose area under curve after oral glucose tolerance test in male db/db mice at 0.33 mg/kg peroral dose of compound thrice a day. It counts as ADME, organism-based. Set-up: dose 0.33 mg/kg, route oral.
Series [24] has as its system Mus musculus. Description: In vivo blood glucose level in male db/db mice after administration of 0.33 mg/kg peroral dose of compound thrice a day. It is filed as functional. As to conditions: route oral.
Series [25] in a line: Maximum achieved Nonfasted triglycerides reduction relative to vehicle treated control group. It is filed as functional.
The test system of series [26] is Mus musculus. Description: In vivo blood glucose level in male db/db mice after administration of 1 mg/kg peroral dose of compound thrice a day. It is filed as functional. The note with it: route oral.
Series [27] concerns Mus musculus. Description: In vivo blood glucose level in male db/db mice after administration of 3 mg/kg peroral dose of compound once in a day. It is filed as functional. As to conditions: route oral.
Series [28] concerns Mus musculus. Description: In vivo % reduction of blood glucose area under curve after oral glucose tolerance test in male db/db mice at 1 mg/kg peroral dose of compound thrice a day. It is filed as ADME, organism-based. Set-up: dose 1 mg/kg, route oral.
For series [29], the system named is Mus musculus. Briefly: In vivo blood glucose area under curve after oral glucose tolerance test in male db/db mice at 1 mg/kg peroral dose of compound once in a day. It is filed as ADME, organism-based. Set-up: dose 1 mg/kg, route oral.
Series [30] in a line: Maximum achieved Total cholesterol reduction relative to vehicle treated control group. It is filed as functional.
Series [31] concerns Mus musculus. Description: In vivo % reduction of blood glucose level in male db/db mice after administration of 1 mg/kg peroral dose of compound thrice a day. As to conditions: route oral. It is filed as functional.
Series [32] has as its system Mus musculus. Description: In vivo % reduction of blood glucose level in male db/db mice after administration of 1 mg/kg peroral dose of compound once in a day. It counts as functional. The note with it: route oral.
Series [33] relates to Mus musculus. Briefly: In vivo % reduction of blood glucose area under curve after oral glucose tolerance test in male db/db mice at 1 mg/kg peroral dose of compound once in a day. It counts as ADME, organism-based. Set-up: dose 1 mg/kg, route oral.

Description for in vivo: Volume of distribution during steady state

What is called EC50 is the concentration at which the effect is half-maximal. Read a high EC50 as a need for much substance. For `CCOC(Cc1ccc(OCCn2c3ccccc3c3ccncc32)cc1)C(=O)O` (stereo not drawn), the results for the EC50 in series [1] and in series [2] were 670 nM and 91 nM, respectively.
What is called Vd is the apparent volume that relates the amount in the body to the concentration in plasma or blood. Read a low Vd as little distribution into tissue. Usually CL/F stands for the apparent clearance, not corrected for the fraction that reaches the circulation. Usually AUC stands for concentration integrated over time. The low end stands for less exposure, the high end for more exposure. One may read the ED50 as the midpoint of the dose-response relation. Lower therefore signals an effect at a small dose. One may read the Cmax as the maximum level reached in the sampled fluid or tissue. Broadly, the half-life is the time needed for the level to fall by half in the phase considered. In the series “in vivo”, `CCc1ccc(CCOc2ccc(CC3SC(=O)NC3=O)cc2)nc1` (stereo not drawn) [PIOGLITAZONE] gave a Vd of 0.22 L/kg. The Max reduction in the series listed under Mus musculus [3] stood at 54%; in the series filed under Mus musculus [4], 39%; in the series filed under Mus musculus [6], 53%; in the series filed under Mus musculus [14], 21%. For the same compound, the apparent clearance CL/F in series [5] stood at 1.4 mL/min/kg. Also, the AUC in [7] came to 29200 ng·h/mL. For the same compound, in [8], the “AUC ED50” value is 12.09 mg/kg. The values for the ED50 in the series listed under Mus musculus [9], in the series listed under Mus musculus [11] and in the series listed under Mus musculus [13] were 15.1 mg/kg, 26.7 mg/kg and 2.62 mg/kg, respectively. For the same compound, in [10], the bioavailability amounted to 112%. This compound also came in with a Cmax in series [12] of 4660 ng/mL. In addition, the half-life in series [15] was 3.8 h.
As for `CCOC(Cc1ccc(OCC=C2c3ccccc3OCOc3ccccc32)cc1)C(=O)O` (stereo not drawn), the response in series [2] was half-maximal at 3400 nM (EC50).
Still for that read-out and setting: for `CCOC(Cc1ccc(OCCN(C)C2c3ccccc3CCc3ccccc32)cc1)C(=O)O` (stereo not drawn) the value was 1700 nM.
Still for that read-out and setting: for `CCOC(Cc1ccc(OCCN2c3ccccc3CCc3ccccc32)cc1)C(=O)O` (stereo not drawn) the value was 750 nM.
For `CN(CCOc1ccc(CC2SC(=O)NC2=O)cc1)c1ccccn1` (stereo not drawn) [ROSIGLITAZONE], the Max reduction is 43% in the series listed under Mus musculus [3]; 35% and 16% in the series filed under Mus musculus [6]; 58% in the series listed under Mus musculus [14]. The BG reduction with Mus musculus [16] is given as 45%; in the series with Mus musculus [17] it was 47%; with Mus musculus [31], 39%; with Mus musculus [32], 25%. In [5], this compound showed a CL/F of 2.1 mL/min/kg. Also, the AUC glu in the series on Mus musculus [18] was 2141 mM·min; with Mus musculus [19] it was 1423 mM·min; in the series on Mus musculus [23], 2398 mM·min; in the series on Mus musculus [29], 2551 mM·min. In series [7], the AUC was found to be 14600 ng·h/mL. Moreover, the AUC glu reduction came to 18% with Mus musculus [20], 28% in the series with Mus musculus [21] and 14% with Mus musculus [33]. The BG in the series on Mus musculus [22] came to 16.08 mM; with Mus musculus [24] it was 11.35 mM; in the series with Mus musculus [26], 13.06 mM; in the series with Mus musculus [27], 11.72 mM. The “AUC ED50” value in series [8] stood at 0.77 mg/kg. The ED50 in the series filed under Mus musculus [9] was 0.07 mg/kg; in the series filed under Mus musculus [11], 0.14 mg/kg; in the series listed under Mus musculus [13] it was 0.87 mg/kg. Besides, the Reduction stood at 11% in [25] and 24% in series [30]. The bioavailability in [10] was 83%. In series [12] (rat), this compound had a Cmax of 4420 ng/mL. Besides, the “AUC glu reduction(mM x min)” value in the series on Mus musculus [28] was determined as 51%.
`CCOC(Cc1ccc(OCCNC2=Nc3ccccc3Sc3ccccc32)cc1)C(=O)O` (stereo not drawn): the EC50 in [1] was found to be 7500 nM; in series [2], 9800 nM.
On the same counts, the results for `CCO[C@@H](Cc1ccc(OCCn2c3ccc(Br)cc3c3cc(Br)ccc32)cc1)C(=O)O` are 220 nM and 44 nM.
On the same counts, the results for `CCO[C@@H](Cc1ccc(OCCn2c3ccccc3c3cc(Br)ccc32)cc1)C(=O)O` are 2400 nM and 330 nM.
On the same counts, the results for `CCOC(Cc1ccc(OCC/C=C2/c3ccccc3COc3ccccc32)cc1)C(=O)O` (stereo not drawn) are 12400 nM and 12400 nM.
For `CCOC(Cc1ccc(OCCC2c3ccccc3Oc3ccccc32)cc1)C(=O)O` (stereo not drawn), the EC50 in series [1] came to 9600 nM; in [2] it was 460 nM.
